# Laboratory results from US5877174A, “2,3-diketopiperazine derivatives or their salts” (Toyama Chemical Co., Ltd., priority 1994, dated 1999).
# pIC50: −log10 of the molar value. Where a name gives a salt, the structure may show the parent alone.
# Experiments:
# [1] = test system: human platelet aggregation; assay: Inhibitory effect on human platelet aggregation (ADP-induced, platelet-rich plasma, aggreometer); type: cell-based; conditions: 5×10^8 platelets/ml, ADP final concentration 3 μM, 37° C., 3 min preincubation, read-out: 50% inhibitory concentration (IC50)
# Experimental: A mixture of blood collected from a human elbow vein and a 3.8% sodium citrate solution in the ratio of 9:1 (v/v) was centrifuged at room temperature to obtain platelet-rich plasma and platelet-poor plasma. Then, the platelet-rich plasma was diluted with the platelet-poor plasma to adjust the number of platelets to 5×10^8 platelets/ml. […] After 3 minutes, 18.75 μl of adenosine 5'-diphosphate (ADP) (final concentration: 3 μM) was added to the mixture and a change in the intensity of transmitted light caused by the aggregation was recorded with the lapse of time with an aggreometer.
# [2] = test system: ddY strain male mice; assay: Acute toxicity (intravenous, mice); type: in vivo; conditions: 300 mg/kg, intravenous (tail), physiological saline
# Experimental: A solution of the compound of Example 58 in physiological saline was intravenously administered to a group consisting of 5 ddY strain male mice (average body weight: 27.5 g) each, in the tails, whereby the acute toxicity of the compound was investigated. As a result, no mouse died at a dose of the test compound of 300 mg/kg.
Structure (SMILES),pIC50 [1],acute toxicity (mortality) [2]
"N=C(N)c1ccc(S(=O)(=O)NCCCN2CCN(CC(=O)O)C(=O)C2=O)cc1 [105(2), [4-[3-(4-Amidinobenzenesulfonylamino)propyl]-2,3-dioxopiperazin-1-yl]aceticacid]",6.02,
"N=C(N)c1ccc(OCCCN2CCN(CC(=O)O)C(=O)C2=O)cc1 [Example 10, [4-[3-(4-Amidinophenoxy)propyl]-2,3-dioxopiperazin-1yl]acetic acid hydrochloride]",5.30,
N=C(N)c1ccc(OCCCCCN2CCN(CC(=O)O)C(=O)C2=O)cc1 [Example 13],5.00,
N=C(N)c1ccc(OCCCN2CCN(CCC(=O)O)C(=O)C2=O)cc1 [Example 15],5.33,
N=C(N)c1ccc(OCCN2CCN(CCCC(=O)O)C(=O)C2=O)cc1 [Example 16],5.66,
"N=C(N)c1ccc(OCCCn2ccn(CC(=O)O)c(=O)c2=O)cc1 [Example 17, [4-[3-(4-Amidinophenoxy)propyl]-1,2,3,4-tetrahydro-2,3-dioxopyrazin-1-yl]acetic acid hydrochloride]",4.38,
"N=C(N)c1ccc(OCCCCN2CCN(C(C(=O)O)c3ccccc3)C(=O)C2=O)cc1 (stereo not drawn) [Example 19, α-[4-[4-(4-Amidinophenoxy)butyl]-2,3-dioxopiperazin-1yl]-α-phenylacetic acid]",6.85,
"N=C(N)c1ccc(OCCCN2CCN(CC(Cc3ccc4c(c3)OCO4)C(=O)O)C(=O)C2=O)cc1 (stereo not shown) [Example 20, 2-[(1,3-Benzodioxol-5-yl)methyl]-3-[4-[3-(4-amidinophenoxy)propyl]-2,3-dioxopiperazin-1-yl]propionic acid]",6.05,
"N=C(N)c1ccc(OCCCN2CCN(C(CC(=O)O)c3cccnc3)C(=O)C2=O)cc1 (stereo not shown) [Example 58, 3-[4-[3-(4-Amidinophenoxy)propyl]-2,3-dioxopiperazin-1-yl]-3-(pyridin-3-yl)propionic acid]",7.27,no mouse died
"CC(CC(=O)O)N1CCN(CCCOc2ccc(C(=N)N)cc2)C(=O)C1=O (stereo not shown) [Example 59, 3-[4-[3-(4-Amidinophenoxy)propyl]-2,3-dioxopiperazin-1-yl]-3-methylpropionic acid]",6.43,
N=C(N)c1ccc(OCCCN2CCN(C(CC(=O)O)c3cccs3)C(=O)C2=O)cc1 (stereo not shown) [Example 61],6.92,
"N=C(N)c1ccc(OCCCN2CCN(C(CC(=O)O)C(=O)O)C(=O)C2=O)cc1 (stereo not shown) [Example 62, 2-[4-[3-(4-Amidinophenoxy)propyl]-2,3-dioxopiperazin-1-yl]succinic acid]",5.49,
COc1ccc(C(CC(=O)O)N2CCN(CCCOc3ccc(C(=N)N)cc3)C(=O)C2=O)cc1 (stereo not shown) [Example 64],6.80,
N=C(N)c1ccc(OCCCN2CCN(C(CC(=O)O)c3ccc(F)cc3)C(=O)C2=O)cc1 (stereo not shown) [Example 65],6.54,
"N=C(N)c1ccc(OCCCN2CCN(C(CC(=O)O)c3ccc4c(c3)OCO4)C(=O)C2=O)cc1 (stereo not shown) [Example 66, 3-[4-[3-(4-Amidinophenoxy)propyl]-2,3-dioxopiperazin-1-yl]-3-(1,3-benzodioxol-5-yl)propionic acid]",6.85,
N=C(N)c1ccc(OCCCN2CCN(C(CC(=O)O)c3ccco3)C(=O)C2=O)cc1 (stereo not shown) [Example 67],6.24,
N=C(N)c1ccc(OCCCN2CCN(C(CC(=O)O)c3ccc(F)cc3F)C(=O)C2=O)cc1 (stereo not shown) [Example 77],6.85,
COc1cccc(C(CC(=O)O)N2CCN(CCCOc3ccc(C(=N)N)cc3)C(=O)C2=O)c1 (stereo not shown) [Example 78],6.82,
"N=C(N)c1ccc(OCCCCN2CCN(C(CC(=O)O)c3cccnc3)C(=O)C2=O)cc1 (stereo not shown) [Example 79, 3-[4-[4-(4-Amidinophenoxy)butyl]-2,3-dioxopiperazin-1-yl]-3-(pyridin-3-yl)propionic acid]",5.46,
"CCCCC(CC(=O)O)N1CCN(CCCOc2ccc(C(=N)N)cc2)C(=O)C1=O (stereo not shown) [Example 82, 3-[4-[3-(4-Amidinophenoxy)propyl]-2,3-dioxopiperazin-1-yl]-3-(butyl)propionic acid]",6.32,
"N=C(N)c1ccc(OCCCN2CCN(C(CC(=O)O)C3CC3)C(=O)C2=O)cc1 (stereo not shown) [Example 83, 3-[4-[3-(4-Amidinophenoxy)propyl]-2,3-dioxopiperazin-1-yl]-3-(cyclopropyl)propionic acid]",5.96,
N=C(N)c1ccc(OCCCN2CCN(C(CC(=O)O)c3cccc4ccccc34)C(=O)C2=O)cc1 (stereo not shown) [Example 85],6.54,
"N=C(N)c1ccc(OCCCN2CCN(CC(C(=O)O)c3ccccc3)C(=O)C2=O)cc1 (stereo not shown) [Example 87, 3-[4-[3-(4-Amidinophenoxy)propyl]-2,3-dioxopiperazin-1-yl]-2-phenylpropionic acid]",6.28,
"CCOC(=O)CC(c1cccnc1)N1CCN(CCCOc2ccc(C(=N)N)cc2)C(=O)C1=O (stereo not shown) [Example 88, Ethyl 3-[4-[3-(4-amidinophenoxy)propyl]-2,3-dioxopiperazin-1yl]-3-(pyridin-3-yl)propionate hydrochloride]",5.47,
"N=C(N)c1ccc(C(=O)NCCN2CCN(C(CC(=O)O)c3cccnc3)C(=O)C2=O)cc1 (stereo not shown) [Example 97, 3-[4-[2-(4-Amidinobenzoyl)aminoethyl]-2,3-dioxopiperazin-1yl]-3-(pyridin-3-yl)propionic acid]",6.25,
N=C(N)c1ccc(C(=O)NCCN2CCN(CCC(=O)O)C(=O)C2=O)cc1 [Example 99],5.68,
"N=C(N)c1ccc(C(=O)NCCCN2CCN(CC(Cc3ccc4c(c3)OCO4)C(=O)O)C(=O)C2=O)cc1 (stereo not shown) [Example 102, 3-[4-[3-(4-Amidinobenzoylamino)propyl]-2,3-dioxopiperazin-1-yl]-2-[(1,3-benzodioxol-5-yl)methyl]-propionic acid]",6.30,
"N=C(N)c1ccc(C(=O)NCCN2CCN(CC(=O)O)C(=O)C2=O)cc1 [Example 103, [4-[2-(4-Amidinobenzoylamino)ethyl]-2,3-dioxopiperazin-1-yl]acetic acid]",5.72,
"N=C(N)c1ccc(C(=O)NCCCN2CCN(CC(=O)O)C(=O)C2=O)cc1 [Example 104, [4-[3-(4-Amidinobenzoylamino)propyl)-2,3-dioxopiperazin-1-yl]acetic acid]",6.10,
"CC(C)(C)OC(=O)CN1CCN(CCCC(=O)Nc2ccc(C(=N)NC(=O)OCc3ccccc3)cc2)C(=O)C1=O [Example 106, tert-Butyl [4-[4-(4-benzyloxycarbonylamidino-phenylamino) -4-oxobutyl]-2,3-dioxopiperazin-1-yl]acetate]",6.00,
